According to US7058616B1, “Method and system for predicting resistance of a disease to a therapeutic agent using a neural network” (Virco Bvba, priority 2000, dated 2006):

Tests used:
[1] = tested on: HIV-1; details: cited from earlier work; for Effect of 333D/E mutation: reverses the M184V effect
[2] = tested on: HIV-1; assay: MT-4 cell viral cytopathic effect protection assay, phenotypic susceptibility of patient recombinant virus; format: cell-based
Description: Phenotypic susceptibility was determined using a MT-4 cell viral cytopathic effect protection assay. See, e.g., Kashiwase et al., Chemotherapy 45(1):48–55 (1999), expressly incorporated herein by reference; Larder et al., Antimicrob. Agents Chemother. 43(8):1961–1967 (1999).

Cc1cn([C@H]2C[C@H](N=[N+]=[N-])[C@@H](CO)O2)c(=O)[nH]c1=O [AZT, 3′-azido-3′-deoxythymidine]
Effect of M184V mutation on AZT resistance [1]: reverses AZT resistance
Effect of 333D/E mutation [1]: dual AZT/3TC resistance

Nc1ccn([C@@H]2CS[C@H](CO)O2)c(=O)n1 [3TC]
actual phenotype resistance level ([2]; Table 3 testing sample 1): S/S (A fold resistance of less than or equal to 4 is considered to be “sensitive,”)
actual phenotype resistance level ([2]; Table 3 testing sample 2): R/R (if the value is greater than 10, it is considered to be “resistant.”)
actual phenotype resistance level ([2]; Table 3 testing sample 3): R/R (if the value is greater than 10, it is considered to be “resistant.”)
actual phenotype resistance level ([2]; Table 3 testing sample 4): S/S (A fold resistance of less than or equal to 4 is considered to be “sensitive,”)
actual phenotype resistance level ([2]; Table 3 testing sample 5): R/R (if the value is greater than 10, it is considered to be “resistant.”)
actual phenotype resistance level ([2]; Table 3 testing sample 6): R (if the value is greater than 10, it is considered to be “resistant.”)
actual phenotype resistance level ([2]; Table 3 testing sample 7): R/R (if the value is greater than 10, it is considered to be “resistant.”)
actual phenotype resistance level ([2]; Table 3 testing sample 8): R/R (if the value is greater than 10, it is considered to be “resistant.”)
actual phenotype resistance level ([2]; Table 3 testing sample 9): R/R (if the value is greater than 10, it is considered to be “resistant.”)
actual phenotype resistance level ([2]; Table 3 testing sample 10): S/S (A fold resistance of less than or equal to 4 is considered to be “sensitive,”)
Effect of M184V mutation on 3TC susceptibility [1]: confers resistance
Effect of 333D/E mutation [1]: dual AZT/3TC resistance

Cc1c(O)cccc1C(=O)N[C@@H](CSc1ccccc1)[C@H](O)CN1C[C@H]2CCCC[C@H]2C[C@H]1C(=O)NC(C)(C)C [Nelfinavir]
actual phenotype resistance level ([2]; PI test sample 2): R/R (if the value is greater than 10, it is considered to be ‘resistant’)
actual phenotype resistance level ([2]; PI test sample 3): R/R (if the value is greater than 10, it is considered to be ‘resistant’)
actual phenotype resistance level ([2]; PI test sample 4): R/R (if the value is greater than 10, it is considered to be ‘resistant’)
actual phenotype resistance level ([2]; PI test sample 5): R/R (if the value is greater than 10, it is considered to be ‘resistant’)
actual phenotype resistance level ([2]; PI test sample 7): R/R (if the value is greater than 10, it is considered to be ‘resistant’)
actual phenotype resistance level ([2]; PI test sample 8): R/R (if the value is greater than 10, it is considered to be ‘resistant’)
actual phenotype resistance level ([2]; PI test sample 9): R/R (if the value is greater than 10, it is considered to be ‘resistant’)
actual phenotype resistance level ([2]; PI test sample 10): R (if the value is greater than 10, it is considered to be ‘resistant’)
actual phenotype resistance level ([2]; PI test sample 11): I/I (greater than 4 and less than 10 is considered to be ‘intermediate’)
actual phenotype resistance level ([2]; PI test sample 13): R/R (if the value is greater than 10, it is considered to be ‘resistant’)
actual phenotype resistance level ([2]; PI test sample 14): R/R (if the value is greater than 10, it is considered to be ‘resistant’)
actual phenotype resistance level ([2]; PI test sample 15): R/R (if the value is greater than 10, it is considered to be ‘resistant’)
actual phenotype resistance level ([2]; PI test sample 16): R/R (if the value is greater than 10, it is considered to be ‘resistant’)
actual phenotype resistance level ([2]; PI test sample 17): R/R (if the value is greater than 10, it is considered to be ‘resistant’)
actual phenotype resistance level ([2]; PI test sample 18): R/R (if the value is greater than 10, it is considered to be ‘resistant’)
actual phenotype resistance level ([2]; PI test sample 19): R (if the value is greater than 10, it is considered to be ‘resistant’)
actual phenotype resistance level ([2]; PI test sample 19, listed as NFV): R/R (if the value is greater than 10, it is considered to be ‘resistant’)
actual phenotype resistance level ([2]; PI test sample 20): R/R (if the value is greater than 10, it is considered to be ‘resistant’)
actual phenotype resistance level ([2]; PI test sample 21): R/R (if the value is greater than 10, it is considered to be ‘resistant’)
actual phenotype resistance level ([2]; PI test sample 22): R (if the value is greater than 10, it is considered to be ‘resistant’)
actual phenotype resistance level ([2]; PI test sample 23): R/R (if the value is greater than 10, it is considered to be ‘resistant’)
actual phenotype resistance level ([2]; PI test sample 24): R/R (if the value is greater than 10, it is considered to be ‘resistant’)
actual phenotype resistance level ([2]; PI test sample 25): R/R (if the value is greater than 10, it is considered to be ‘resistant’)
actual phenotype resistance level ([2]; PI test sample 26): R/R (if the value is greater than 10, it is considered to be ‘resistant’)
actual phenotype resistance level ([2]; PI test sample 32): R/R (if the value is greater than 10, it is considered to be ‘resistant’)
actual phenotype resistance level ([2]; PI test sample 33): R/R (if the value is greater than 10, it is considered to be ‘resistant’)
actual phenotype resistance level ([2]; PI test sample 34): R/R (if the value is greater than 10, it is considered to be ‘resistant’)
actual phenotype resistance level ([2]; PI test sample 35): R/R (if the value is greater than 10, it is considered to be ‘resistant’)
actual phenotype resistance level ([2]; PI test sample 36): R/R (if the value is greater than 10, it is considered to be ‘resistant’)
actual phenotype resistance level ([2]; PI test sample 37): R/R (if the value is greater than 10, it is considered to be ‘resistant’)
actual phenotype resistance level ([2]; PI test sample 38): R/R (if the value is greater than 10, it is considered to be ‘resistant’)
actual phenotype resistance level ([2]; PI test sample 39): R/R (if the value is greater than 10, it is considered to be ‘resistant’)
actual phenotype resistance level ([2]; PI test sample 40): R/R (if the value is greater than 10, it is considered to be ‘resistant’)
actual phenotype resistance level ([2]; PI test sample 41): R/R (if the value is greater than 10, it is considered to be ‘resistant’)
actual phenotype resistance level ([2]; PI test sample 42): I/I (greater than 4 and less than 10 is considered to be ‘intermediate’)
actual phenotype resistance level ([2]; PI test sample 44): R/R (if the value is greater than 10, it is considered to be ‘resistant’)
actual phenotype resistance level ([2]; PI test sample 45): R/R (if the value is greater than 10, it is considered to be ‘resistant’)
actual phenotype resistance level ([2]; Table 3 testing sample 1): S/S (A fold resistance of less than or equal to 4 is considered to be “sensitive,”)
actual phenotype resistance level ([2]; Table 3 testing sample 4): R/R (if the value is greater than 10, it is considered to be “resistant.”)
actual phenotype resistance level ([2]; Table 3 testing sample 5): R/R (if the value is greater than 10, it is considered to be “resistant.”)
actual phenotype resistance level ([2]; Table 3 testing sample 6): R/R (if the value is greater than 10, it is considered to be “resistant.”)
actual phenotype resistance level ([2]; Table 3 testing sample 7): S/S (A fold resistance of less than or equal to 4 is considered to be “sensitive,”)
actual phenotype resistance level ([2]; Table 3 testing sample 8): R/R (if the value is greater than 10, it is considered to be “resistant.”)
actual phenotype resistance level ([2]; Table 3 testing sample 10): R/R (if the value is greater than 10, it is considered to be “resistant.”)
actual phenotype ([2]; Table 13/14 sample 1: 10I,71V,73S,84V,90M, 63P,85V,93L): R (if the value is greater than 10, it is considered to be ‘resistant’)
actual phenotype ([2]; Table 13/14 sample 3: 10I, 36V,93L): R (if the value is greater than 10, it is considered to be ‘resistant’)
actual phenotype ([2]; Table 13/14 sample 5: 10V,30N, 13V,63P): R (if the value is greater than 10, it is considered to be ‘resistant’)
actual phenotype ([2]; Table 13/14 sample 7: 71V,73S,90M, 20I,63P): R (if the value is greater than 10, it is considered to be ‘resistant’)
actual phenotype ([2]; Table 13/14 sample 10: 46I,71V,73S,90M, 20I,63P,93L): R (if the value is greater than 10, it is considered to be ‘resistant’)
actual phenotype ([2]; Table 13/14 sample 18: 36I,71T,90M, 63P,93L): R (if the value is greater than 10, it is considered to be ‘resistant’)
actual phenotype ([2]; Table 13/14 sample 20: 77I,88S, 13V, 63P, 93L): R (if the value is greater than 10, it is considered to be ‘resistant’)

Nc1ccn([C@H]2CC[C@@H](CO)O2)c(=O)n1 [DDC]
actual phenotype resistance level ([2]; Table 3 testing sample 1): S/S (A fold resistance of less than or equal to 4 is considered to be “sensitive,”)
actual phenotype resistance level ([2]; Table 3 testing sample 2): S/S (A fold resistance of less than or equal to 4 is considered to be “sensitive,”)
actual phenotype resistance level ([2]; Table 3 testing sample 3): S/S (A fold resistance of less than or equal to 4 is considered to be “sensitive,”)
actual phenotype resistance level ([2]; Table 3 testing sample 4): S/S (A fold resistance of less than or equal to 4 is considered to be “sensitive,”)
actual phenotype resistance level ([2]; Table 3 testing sample 5): S/S (A fold resistance of less than or equal to 4 is considered to be “sensitive,”)
actual phenotype resistance level ([2]; Table 3 testing sample 6): I (greater than 4 and less than 10 is considered to be “intermediate,”)
actual phenotype resistance level ([2]; Table 3 testing sample 7): S/S (A fold resistance of less than or equal to 4 is considered to be “sensitive,”)
actual phenotype resistance level ([2]; Table 3 testing sample 8): S (A fold resistance of less than or equal to 4 is considered to be “sensitive,”)
actual phenotype resistance level ([2]; Table 3 testing sample 9): S/S (A fold resistance of less than or equal to 4 is considered to be “sensitive,”)
actual phenotype resistance level ([2]; Table 3 testing sample 10): S/S (A fold resistance of less than or equal to 4 is considered to be “sensitive,”)
